Test results as given in patent US11613556B2, “Oxysterols and methods of use thereof” (Sage Therapeutics, Inc., priority 2016, dated 2023).
Read-outs that look alike come from different tables or passages of the source.

Key:
Format in all cases: cell-based
[1] = target: glutamate-activated channels of the GRIN1/2A subtype stably transfected in HEK 293 cells (Homo sapiens (Human), UniProt Q05586+Q12879); assay: Automated patch-clamp system (QPatch HTX), percent potentiation at 1 μM; conditions: HEK293, 1 μM test compound, 300 μM NMDA with 8 μM glycine, HEK 293 GRIN1/2A, read-out: GluN2A PCA % potentiation at 1 μM
Chain of glutamate-activated channels of the GRIN1/2A subtype stably transfected in HEK 293 cells (Q12879 whole entry, looked up, other chains not shown): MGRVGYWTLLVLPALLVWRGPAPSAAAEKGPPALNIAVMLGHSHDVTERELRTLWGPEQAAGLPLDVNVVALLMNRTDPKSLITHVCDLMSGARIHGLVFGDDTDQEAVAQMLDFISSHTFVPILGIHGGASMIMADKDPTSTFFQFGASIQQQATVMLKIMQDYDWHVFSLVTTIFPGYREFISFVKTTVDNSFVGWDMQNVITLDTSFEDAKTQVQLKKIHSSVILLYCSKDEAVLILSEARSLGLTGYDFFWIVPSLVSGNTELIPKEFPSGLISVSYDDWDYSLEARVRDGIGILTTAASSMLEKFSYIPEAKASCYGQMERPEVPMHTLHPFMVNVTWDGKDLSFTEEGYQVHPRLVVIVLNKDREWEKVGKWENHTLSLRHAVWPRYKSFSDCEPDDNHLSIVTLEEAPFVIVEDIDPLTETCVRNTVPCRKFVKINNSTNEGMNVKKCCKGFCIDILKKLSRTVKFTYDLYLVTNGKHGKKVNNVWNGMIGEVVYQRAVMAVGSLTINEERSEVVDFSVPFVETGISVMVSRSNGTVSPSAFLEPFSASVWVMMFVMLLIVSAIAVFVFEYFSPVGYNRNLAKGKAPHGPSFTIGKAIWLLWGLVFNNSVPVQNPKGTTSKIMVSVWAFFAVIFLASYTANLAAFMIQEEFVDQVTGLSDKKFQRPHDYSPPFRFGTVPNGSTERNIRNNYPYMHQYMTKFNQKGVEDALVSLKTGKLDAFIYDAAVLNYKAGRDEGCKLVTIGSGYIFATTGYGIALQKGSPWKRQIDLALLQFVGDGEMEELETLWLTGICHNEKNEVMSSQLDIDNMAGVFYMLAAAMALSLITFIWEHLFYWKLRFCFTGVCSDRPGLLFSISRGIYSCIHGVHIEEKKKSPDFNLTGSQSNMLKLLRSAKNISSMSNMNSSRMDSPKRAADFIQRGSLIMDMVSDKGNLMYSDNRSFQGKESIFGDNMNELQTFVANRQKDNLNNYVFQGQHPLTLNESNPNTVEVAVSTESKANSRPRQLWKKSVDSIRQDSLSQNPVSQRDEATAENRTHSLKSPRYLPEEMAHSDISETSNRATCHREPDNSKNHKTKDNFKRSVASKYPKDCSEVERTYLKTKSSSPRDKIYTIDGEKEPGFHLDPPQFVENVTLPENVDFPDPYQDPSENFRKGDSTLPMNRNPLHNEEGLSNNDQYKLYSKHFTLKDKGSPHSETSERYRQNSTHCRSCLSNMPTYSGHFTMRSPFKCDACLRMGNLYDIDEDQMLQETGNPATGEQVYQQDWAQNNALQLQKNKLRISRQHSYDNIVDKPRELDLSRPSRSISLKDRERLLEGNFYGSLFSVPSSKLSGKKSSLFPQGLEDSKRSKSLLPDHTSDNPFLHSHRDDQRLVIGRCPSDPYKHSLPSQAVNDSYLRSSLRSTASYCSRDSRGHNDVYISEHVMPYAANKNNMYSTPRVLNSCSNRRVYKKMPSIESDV
Protocol: (§1) NMDA potentiation in mammalian cells which expressed NMDA receptors was assessed using the automatic patch-clamp system can be used determine the NAM activity of compounds as described below. An whole cell patch-clamp system can be used determine the PAM activity of compounds as described below.
Automated Patch-Clamp System (OPatch HTX):
In this study, HEK 293 cells stably transfected with glutamate-activated channels of the GRIN1/2A subtype will be used together with submaximal NMDA concentrations (300 μM NMDA, co-application with 8 μM Glycine) to investigate the negative allosteric modulation of the test compounds.
In general, cells will be passaged at a confluence of about 80% to […]. For electrophysiological measurements cells will be harvested at a confluence of about 80% to 90% from sterile culture flasks containing culture complete medium. Cells will be transferred as suspension in PBS to the QPatch 16X or QPatch HTX system to the centrifuge/washer directly.
Standard Laboratory Conditions: Cells will be incubated at 37° C. in a humidified atmosphere with 5% CO2 (rel. humidity about 95%).
Culture media: The cells will be continuously maintained in and passaged in sterile culture flasks containing a 1:1 mixture of Dulbecco's modified eagle medium and nutrient mixture F-12 (D-MEM/F-12 1×, liquid, with L-Glutamine) supplemented with 10% fetal bovine serum, 1% Penicillin/Streptomycin solution, and 50 μM AP-5 blocker.
Antibiotics: The complete medium as indicated above is supplemented with 100 μg/mL hygromycin, 15 μg/mL blasticidin and 1 μg/mL puromycin.
Induction of Expression: 2.5 μg/mL tetracycline is added 24 h before start of experiments.
Dose levels are in terms of test compounds, as supplied. Vehicle will be added to achieve a stock concentration of 10 mM (storage at −10° C. to −30° C.). A further stock solutions of 1.0 mM will be prepared in DMSO. Details of stock solution usage (thawing, dose formulations) will be documented in the raw data. The time period of stock solution usage will be detailed in the report.
Test Compound Concentrations
One test concentration of 1.0 μM will be tested.
All test solutions will be prepared by diluting the stock solutions with either Mg-free bath solution only or Mg-free bath solution containing NMDA (300 μM) and glycine (8.0 μM) shortly prior to the electrophysiological experiments and kept at room temperature (19° C. to 30° C.) when in use. 0.1% DMSO will be used as vehicle.
Frequency of preparation: For each test concentration, fresh solutions of test compounds will be prepared every day.
Stability of dose formulation: All preparation times will be documented in the raw data. Any observations regarding instability of test compounds will be mentioned in the raw data.
Storage of dose formulation: On the day of experimentation dose formulations will be maintained at room temperature (19° C. to 30° C.) when in use.
For preparing the experiments and for formation of the giga-ohm-seal, the following standard bath solution will be used:
Sodium Chloride: 137 mM; Potassium Chloride: 4 mM; Calcium Chloride: 1.8 mM; Magnesium Chloride: 1 mM; HEPES: 10 mM; D-Glucose: 10 mM; Cremophor: 0.02%; pH (NaOH): 7.4
The 1× bath solution will be prepared by diluting 10× bath solution without Glucose and 100× Glucose solution with water at least every 7 days. Both stock solutions have been prepared prior to the experimental start of the present study and stored at 1° C. to 9° C. (10× bath solution) or −10° C. to −30° (100× Glucose solution). The batch number(s) of the bath solution(s) used in the experiments will be documented in the raw data. When in use, the 1× bath solution will be kept at room temperature (19° C. to 30° C.). When not in use, the 1× bath solution will be stored at 1° C. to 9° C.
After the giga-seal was formed the following Mg-free bath solution will be used:
Sodium Chloride: 137 mM; Potassium Chloride: 4 mM; Calcium Chloride; 2.8 mM; HEPES: 10 mM; D-Glucose: 10 mM; Cremophor: 0.02%; pH (NaOH): 7.4 […]

[2] = target: GluN1/GluN2A glutamate receptors (human GRIN1/GRIN2A) expressed in HEK293 cells (Homo sapiens (Human), UniProt Q05586+Q12879); assay: Whole-cell patch clamp of mammalian cells (Ionworks Barracuda), positive allosteric modulation, GluN1/GluN2A; conditions: for Emax: read-out: GluN2A PCA EMax (%)
Chain of GluN1/GluN2A glutamate receptors (human GRIN1/GRIN2A) expressed in HEK293 cells (Q12879 whole entry, looked up, other chains not shown): as above
Protocol: as §1
(§2) The measurements were performed using Ion Works Barracuda platform following this procedure:
(§3) Electrophysiological Procedures: • a) Intracellular solution (mM): 50 mM CsCl, 90 mM CsF, 2 mM MgCl2, 5 mM EGTA, 10 mM HEPES. Adjust to pH 7.2 with CsOH. • b) Extracellular solution, HB-PS (composition in mM): NaCl, 137; KCl, 1.0; CaCl2, 5; HEPES, 10; Glucose, 10; pH adjusted to 7.4 with NaOH (refrigerated until use). • c) Holding potential: −70 mV, potential during agonist/PAM application: −40 mV.
(§4) Recording Procedure: • a) Extracellular buffer will be loaded into the PPC plate wells (11 μL per well). Cell suspension will be pipetted into the wells (9 μL per well) of the PPC planar electrode. • b) Whole-cell recording configuration will be established via patch perforation with membrane currents recorded by on-board patch clamp amplifiers. • c) Two recordings (scans) will be performed. First, during pre-application of test article alone (duration of pre-application—5 min) and second, during test articles and agonist (EC20 L-glutamate and 30 μM glycine) co-application to detect positive modulatory effects of the test article.
(§5) Test Article Administration: The first pre-application will consist of the addition of 20 μL of 2× concentrated test article solution and, second, of 20 μL of 1× concentrated test article and agonist at 10 μL/s (2 second total application time).
(§6) Potentiating Effect of Positive Allosteric Modulators (PAM) on the Channel
(§7) The maximal amplitude of the evoked currents are measured and defined as Peak Current Amplitude (PCA).

[3] = target: GluN2B glutamate receptors expressed in mammalian cells (Homo sapiens (Human), UniProt Q05586+Q13224); assay: Whole-cell patch clamp of mammalian cells (Ionworks Barracuda), positive allosteric modulation, GluN2B; conditions: for Emax: read-out: GluN2B PCA EMax (%)
Chain of GluN2B glutamate receptors expressed in mammalian cells (Q13224 27-1484, other chains not shown): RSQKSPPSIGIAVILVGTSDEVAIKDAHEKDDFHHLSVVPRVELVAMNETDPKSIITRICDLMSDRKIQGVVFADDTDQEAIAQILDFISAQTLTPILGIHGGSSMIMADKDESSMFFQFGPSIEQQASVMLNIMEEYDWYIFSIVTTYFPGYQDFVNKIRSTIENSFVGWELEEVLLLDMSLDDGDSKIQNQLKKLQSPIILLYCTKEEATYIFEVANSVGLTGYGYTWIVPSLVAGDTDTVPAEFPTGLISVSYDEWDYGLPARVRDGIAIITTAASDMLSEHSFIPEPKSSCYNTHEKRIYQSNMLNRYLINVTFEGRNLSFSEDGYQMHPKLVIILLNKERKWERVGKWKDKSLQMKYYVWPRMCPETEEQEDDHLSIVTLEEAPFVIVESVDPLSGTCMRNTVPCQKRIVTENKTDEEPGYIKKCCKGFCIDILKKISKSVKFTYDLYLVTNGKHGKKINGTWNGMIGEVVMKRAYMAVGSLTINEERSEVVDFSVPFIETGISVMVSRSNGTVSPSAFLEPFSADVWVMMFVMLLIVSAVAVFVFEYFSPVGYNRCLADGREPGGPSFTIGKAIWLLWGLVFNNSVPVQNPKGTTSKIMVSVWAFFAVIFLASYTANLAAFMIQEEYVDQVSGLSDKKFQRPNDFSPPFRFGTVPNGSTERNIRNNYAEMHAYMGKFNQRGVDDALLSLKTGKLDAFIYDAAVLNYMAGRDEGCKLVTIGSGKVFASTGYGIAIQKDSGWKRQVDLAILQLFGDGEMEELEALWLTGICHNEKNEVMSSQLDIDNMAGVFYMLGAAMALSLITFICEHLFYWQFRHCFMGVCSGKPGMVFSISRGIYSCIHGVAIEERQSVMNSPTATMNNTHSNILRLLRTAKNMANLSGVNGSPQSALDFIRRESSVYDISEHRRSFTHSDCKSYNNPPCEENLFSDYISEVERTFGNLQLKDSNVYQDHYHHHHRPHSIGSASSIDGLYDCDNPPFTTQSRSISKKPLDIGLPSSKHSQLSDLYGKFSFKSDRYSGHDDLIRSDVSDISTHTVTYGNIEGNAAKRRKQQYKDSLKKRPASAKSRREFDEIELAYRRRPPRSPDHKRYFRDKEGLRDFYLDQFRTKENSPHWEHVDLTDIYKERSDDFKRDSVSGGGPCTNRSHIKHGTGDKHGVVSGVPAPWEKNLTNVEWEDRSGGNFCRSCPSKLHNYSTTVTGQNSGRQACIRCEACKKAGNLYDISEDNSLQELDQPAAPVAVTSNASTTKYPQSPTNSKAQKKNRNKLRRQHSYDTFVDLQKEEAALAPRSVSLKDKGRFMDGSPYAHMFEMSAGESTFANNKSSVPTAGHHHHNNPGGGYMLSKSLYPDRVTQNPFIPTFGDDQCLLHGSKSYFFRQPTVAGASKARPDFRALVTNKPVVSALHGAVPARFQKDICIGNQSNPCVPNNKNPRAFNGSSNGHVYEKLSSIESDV
Protocol: as §1, §2, §3, §4, §5, §6, §7

[4] = peak current amplitude, co-application with EC20 L-glutamate and 30 μM glycine, HEK293

Structure (SMILES)	activation at 1 µM [1]	also measured
C[C@@H]([C@H]1CC[C@H]2[C@@H]3CC=C4C[C@](O)(C(F)(F)F)CC[C@]4(C)[C@H]3CC[C@]12C)[C@H](O)C(F)(F)F [Compound 1, (3S,8S,9S,10R,13S,14S,17R)-10,13-dimethyl-17-((2S,3S)-4,4,4-trifluoro-3-hydroxybutan-2-yl)-3-(trifluoromethyl)-2,3,4,7,8,9,10,11,12,13,14,15,16,17-tetradecahydro-1H-cyclopenta[a]phenanthren-3-ol]	-40 to -10%	
COC[C@]1(O)CC[C@@]2(C)[C@@H](CC[C@@H]3[C@@H]2CC[C@]2(C)[C@@H]([C@H](C)[C@H](O)CCC(C)C)CC[C@@H]32)C1 [Compound 2, (3S,5S,8R,9S,10S,13S,14S,17R)-17-((2S,3R)-3-hydroxy-6-methylheptan-2-yl)-3-(methoxymethyl)-10,13-dimethylhexadecahydro-1H-cyclopenta[a]phenanthren-3-ol]	< -40%	
CC[C@]1(O)CC[C@@]2(C)[C@@H](CC[C@@H]3[C@@H]2CC[C@]2(C)[C@@H]([C@H](C)[C@@H](O)c4cccnc4)CC[C@@H]32)C1 [Compound 7, (3S,5S,8R,9S,10S,13S,14S,17R)-3-ethyl-17-((1R,2S)-1-hydroxy-1-(pyridin-3-yl)propan-2-yl)-10,13-dimethylhexadecahydro-1H-cyclopenta[a]phenanthren-3-ol]	-10 to 10%	
COC[C@]1(O)CC[C@@]2(C)[C@H](CC[C@@H]3[C@@H]2CC[C@]2(C)[C@@H]([C@H](C)[C@@H](O)C(F)(F)F)CC[C@@H]32)C1 [Compound 9, (3S,5R,8R,9S,10S,13S,14S,17R)-3-(methoxymethyl)-10,13-dimethyl-17-((2S,3R)-4,4,4-trifluoro-3-hydroxybutan-2-yl)hexadecahydro-1H-cyclopenta[a]phenanthren-3-ol]	-40 to -10%	
CC[C@]1(O)CC[C@@]2(C)[C@@H](CC[C@@H]3[C@@H]2CC[C@]2(C)[C@@H]([C@H](C)[C@@H](O)C4CC4)CC[C@@H]32)C1 [Compound 10, (3S,5S,8R,9S,10S,13S,14S,17R)-17-((1S,2S)-1-cyclopropyl-1-hydroxypropan-2-yl)-3-ethyl-10,13-dimethylhexadecahydro-1H-cyclopenta[a]phenanthren-3-ol]	< -40%	
CC[C@]1(O)CC[C@@]2(C)[C@@H](CC[C@@H]3[C@@H]2CC[C@]2(C)[C@@H]([C@H](C)[C@H](O)C(F)(F)F)CC[C@@H]32)C1 [Compound 11, (3S,5S,8R,9S,10S,13S,14S,17R)-3-ethyl-10,13-dimethyl-17-((2S,3S)-4,4,4-trifluoro-3-hydroxybutan-2-yl)hexadecahydro-1H-cyclopenta[a]phenanthren-3-ol]	< -40%	
CC[C@]1(O)CC[C@@]2(C)[C@H](CC[C@@H]3[C@@H]2CC[C@]2(C)[C@@H]([C@H](C)[C@H](O)CCC(C)(C)C)CC[C@@H]32)C1 [Compound 15, (3S,5R,8R,9S,10S,13S,14S,17R)-3-ethyl-17-((2S,3R)-3-hydroxy-6,6-dimethylheptan-2-yl)-10,13-dimethylhexadecahydro-1H-cyclopenta[a]phenanthren-3-ol]	-40 to -10%	
CC[C@]1(O)CC[C@@]2(C)[C@@H](CC[C@@H]3[C@@H]2CC[C@]2(C)[C@@H]([C@H](C)[C@@H](O)C(F)(F)F)CC[C@@H]32)C1 [Compound 16, (3S,5S,8R,9S,10S,13S,14S,17R)-3-ethyl-10,13-dimethyl-17-((2S,3R)-4,4,4-trifluoro-3-hydroxybutan-2-yl)hexadecahydro-1H-cyclopenta[a]phenanthren-3-ol]	-40 to -10%	
CC[C@]1(O)CC[C@@]2(C)[C@@H](CC[C@@H]3[C@@H]2CC[C@]2(C)[C@@H]([C@H](C)[C@H](O)CC4CCOCC4)CC[C@@H]32)C1 [Compound 18, (3S,5S,8R,9S,10S,13S,14S,17R)-3-ethyl-17-((2S,3R)-3-hydroxy-4-(tetrahydro-2H-pyran-4-yl)butan-2-yl)-10,13-dimethylhexadecahydro-1H-cyclopenta[a]phenanthren-3-ol]	-10 to 10%	
CC[C@]1(O)CC[C@@]2(C)[C@@H](CC[C@@H]3[C@@H]2CC[C@]2(C)[C@@H]([C@H](C)[C@H](O)c4ccccc4)CC[C@@H]32)C1 [Compound 19, (3S,5S,8R,9S,10S,13S,14S,17R)-3-ethyl-17-((1S,2S)-1-hydroxy-1-phenylpropan-2-yl)-10,13-dimethylhexadecahydro-1H-cyclopenta[a]phenanthren-3-ol]	-40 to -10%	
C[C@@H]([C@H]1CC[C@H]2[C@@H]3CC[C@H]4C[C@](O)(C(F)(F)F)CC[C@]4(C)[C@H]3CC[C@]12C)[C@@H](O)C[C@@H](O)c1ccccc1 [Compound 79, (1R,3S,4S)-4-((3S,5S,8R,9S,10S,13S,14S,17R)-3-hydroxy-10,13-dimethyl-3-(trifluoromethyl)hexadecahydro-1H-cyclopenta[a]phenanthren-17-yl)-1-phenylpentane-1,3-diol]		EC50 ([2]; peak current amplitude, co-application with EC20 L-glutamate and 30 μM glycine, HEK293, read-out: GluN2A PCA EC50): > 1 µM; Emax [2, 4]: < 100%; EC50 [3]: > 1 µM; Emax [3]: < 100%
CC[C@]1(O)CC[C@H]2[C@H](CC[C@@H]3[C@@H]2CC[C@]2(C)[C@@H]([C@H](C)[C@@H](O)CCC(C)C)CC[C@@H]32)C1 [Compound 82, (3S,5R,8R,9R,10S,13S,14S,17R)-3-ethyl-17-((2S,3S)-3-hydroxy-6-methylheptan-2-yl)-13-methylhexadecahydro-1H-cyclopenta[a]phenanthren-3-ol]		EC50 [2]: > 1 µM; Emax [2, 4]: < 100%; EC50 ([3]; peak current amplitude, co-application with EC20 L-glutamate and 30 μM glycine, read-out: GluN2B PCA EC50): > 1 µM; Emax ([3]; peak current amplitude, co-application with EC20 L-glutamate and 30 μM glycine): < 100%
